# Read-outs that look alike come from different tables or passages of the source.
# Key:
# [1] = test system: hypothermia induced by apomorphine; assay: inhibition of hypothermia induced by apomorphine (apomorphine test); details: Mus musculus, po, 1 h, read-out: Hypothermia inhibition from Apo16: ED-50
# [2] = test system: motor activity; details: in vivo
# [3] = test system: duodenal ulcers; assay: effect on duodenal ulcers; details: in vivo
# [4] = test system: anticholinergic effect; details: in vivo
# [5] = test system: blood pressure; details: in vivo
# [6] = test system: convulsions; details: in vivo
# [7] = test system: cardio-toxic; details: in vivo
# [8] = acute oral toxicity (LD-50); details: mouse, in vivo
# [9] = Swiss male mice, after 14 days, read-out: LD-50
Structure (SMILES),ED50 [1] [mg/kg],"LD50 at 336 h [8, 9] [mg/kg]",also measured
"CN(C)CC(=O)N1c2ccccc2N(C)S(=O)(=O)c2ccccc21 [Compound 1, 6-Methyl-6,11-dihydro-11-(N,N-dimethylaminoacetyl)dibenzo[c,f][1,2,5]thiadiazepine 5,5-dioxide]",4 to 15,1500 to 2000,"motor activity [2]: does not alter the motor activity; duodenal ulcers [3]: reduces duodenal ulcers; anticholinergic effect [4]: induces very weak anticholinergic effects; blood pressure [5]: does not alter the blood pressure; convulsions [6]: does not induce convulsions; cardio-toxicity [7]: is not cardio-toxic; LD50 at 336 h ([8]; mice, read-out: oral LD-50): 1920 mg/kg"
CNCC(=O)N1c2ccccc2N(C)S(=O)(=O)c2ccccc21 [Compound 2],4 to 15,750 to 1000,–
"CCN(CC)CC(=O)N1c2ccccc2N(C)S(=O)(=O)c2ccccc21 [Compound 3, 6-Methyl-6,11-dihydro-11-(N,N-diethylamino-acetyl)dibenzo[c,f][1,2,5]thiadiazepine 5,5-dioxide]",15 to 25,> 2000,–
"CN(C)CCC(=O)N1c2ccccc2N(C)S(=O)(=O)c2ccccc21.Cl [Compound 4, 6-Methyl-6,11-dihydro-11-[3-(N,N-dimethylamino)propionyl]dibenzo[c,f][1,2,5]thiadiazepine 5,5-dioxide hydrochloride]",15 to 25,500 to 700,–
"CN(C)CC(=O)N1c2ccc(Cl)cc2N(C)S(=O)(=O)c2ccccc21 [Compound 5, 8-chloro-6-methyl-6,11-dihydro-11-(N,N-dimethylamino-acethyl)-dibenzo[c,f][1,2,5]thiadiazepine 5,5-dioxide]",15 to 25,1000 to 1500,–
"Cc1ccc2c(c1)N(C(=O)CN(C)C)c1ccccc1S(=O)(=O)N2C [Compound 6, 6,9-dimethyl-6,11-dihydro-11-(N,N-dimethylaminoacetyl)-dibenzo[c,f][1,2,5]thiadiazepine 5,5-dioxide]",4 to 15,1500 to 2000,–
"CN(C)CCCN1c2ccccc2CCc2ccccc21 [imipramine, reference compound]",4 to 15,–,–
CN(C)CCCN1c2ccccc2N(C)S(=O)(=O)c2ccccc21 [reference compound],–,–,"motor activity [2]: increases the motor activity; anticholinergic effect [4]: possesses anticholinergic effect; blood pressure [5]: increases the blood pressure; convulsions [6]: induces convulsions; LD50 at 336 h ([8]; mice, read-out: oral LD-50): 655 mg/kg"

# Reference: US5011833A, “Novel derivatives of 6,11-dihydro-dibenzo(C,F)(1,2,5)-thiadiazepine 5,5-dioxide, salts thereof and appropriate processes for the preparation thereof” (A. Menarini Industrie Farmaceutiche Riunite, priority 1988, dated 1991)
